Reference: US9376425B2, “Heterocyclic compounds as MDM2 inhibitors for the treatment of cancer” (AMGEN INC., priority 2011, dated 2016)
pIC50: −log10 of the molar value.

Each compound was assayed against T1, human MDM2 (GST-hMDM2 1-188), interaction with biotinylated-p53 (1-83) (Homo sapiens, UniProt Q00987) (assay: improved HTRF assay (HTRF2 assay), inhibition of HDM2-p53 interaction). Conditions: 0.2 nM GST-hMDM2, 0.5 nM biotinylated-p53, 100 mM KF.
T1 construct: Amino acid residues 1-188 of human MDM2 were expressed; made in house; host or cells: Escherichia coli
Format: binding
In short: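 Time-resolved fluorescence (HTRF) read after >4 h equilibration with SA-XLent/anti-GST cryptate/KF detection reagents. Reaction: compound plus GST-hMDM2 for 20 min at room temperature, then E. coli-expressed biotinylated p53 residues 1-83 for 60 min, 2% DMSO final. Inhibition expressed versus nutlin-3.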

T1 sequence (Q00987 1-188): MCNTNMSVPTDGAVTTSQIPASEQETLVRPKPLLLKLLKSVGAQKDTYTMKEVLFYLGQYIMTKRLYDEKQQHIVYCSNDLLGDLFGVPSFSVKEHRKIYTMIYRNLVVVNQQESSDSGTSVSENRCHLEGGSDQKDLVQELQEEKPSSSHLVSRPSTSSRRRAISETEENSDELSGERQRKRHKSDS

| Compound | pIC50 |
| --- | --- |
| C[C@@H](CS(=O)(=O)C(C)(C)C)N1C(=O)[C@H](CC(=O)NO)O[C@H](c2cccc(Cl)c2)[C@H]1c1ccc(Cl)cc1 (single isomer, unassigned) [Example 229, 2-((2S,5R,6R)-4-((S)-1-(tert-butylsulfonyl)propan-2-yl)-6-(3-chlorophenyl)-5-(4-chlorophenyl)-3-oxomorpholin-2-yl)-N-hydroxyacetamide or 2-((2R,5R,6R)-4-((S)-1-(tert-butylsulfonyl)propan-2-yl)-6-(3-chlorophenyl)-5-(4-chlorophenyl)-3-oxomorpholin-2-yl)-N-hydroxyacetamide] | 8.10 |
| CC[C@@H](CN(c1ccccc1F)S(=O)(=O)C1CC1)N1C(=O)[C@@H](CCC(=O)O)O[C@H](c2cccc(Cl)c2)[C@H]1c1ccc(Cl)cc1 (single isomer, unassigned) [Example 263, 3-((2R,5R,6R)-6-(3-chlorophenyl)-5-(4-chlorophenyl)-4-((S)-1-(N-(2-fluorophenyl)cyclopropanesulfonamido)butan-2-yl)-3-oxomorpholin-2-yl)propanoic acid or 3-((2S,5R,6R)-6-(3-chlorophenyl)-5-(4-chlorophenyl)-4-((S)-1-(N-(2-fluorophenyl)cyclopropanesulfonamido)butan-2-yl)-3-oxomorpholin-2-yl)propanoic acid] | 8.70 |
| CC[C@@H](CS(=O)(=O)CCN(C)C)N1C(=O)[C@H](CC(=O)O)O[C@H](c2cccc(Cl)c2)[C@H]1c1ccc(Cl)cc1 (single isomer, unassigned) [Example 248, 2-((2S,5R,6R)-6-(3-chlorophenyl)-5-(4-chlorophenyl)-4-((S)-1-((2-(dimethylamino)ethyl)sulfonyl)butan-2-yl)-3-oxomorpholin-2-yl)acetic acid or 2-((2R,5R,6R)-6-(3-chlorophenyl)-5-(4-chlorophenyl)-4-((S)-1-((2-(dimethylamino)ethyl)sulfonyl)butan-2-yl)-3-oxomorpholin-2-yl)acetic acid] | 8.10 |
| CC(C)(C)S(=O)(=O)C[C@@H](C1CCC1)N1C(=O)[C@@H](CC(=O)O)O[C@H](c2cccc(Cl)c2)[C@H]1c1ccc(Cl)cc1 (single isomer, unassigned) [Example 273, 2-((2R,5R,6R)-4-((R)-2-(tert-Butylsulfonyl)-1-cyclobutylethyl)-6-(3-chlorophenyl)-5-(4-chlorophenyl)-3-oxomorpholin-2-yl)acetic acid or 2-((2S,5R,6R)-4-((R)-2-(tert-butylsulfonyl)-1-cyclobutylethyl)-6-(3-chlorophenyl)-5-(4-chlorophenyl)-3-oxomorpholin-2-yl)acetic acid] | 7.02 |
| CC[C@@H]([C@H](C)S(=O)(=O)C(C)(C)C)N1C(=O)[C@@H](CC(=O)O)O[C@H](c2cccc(Cl)c2)[C@H]1c1ccc(Cl)cc1 (single isomer, unassigned) [Example 419] | 8.40 |
| CC[C@@H](CS(=O)(=O)C(C)(C)C)N1C(=O)[C@@H](CC(N)=O)O[C@H](c2cccc(Cl)c2)[C@H]1c1ccc(Cl)cc1 (single isomer, unassigned) [Example 261, 2-((2R,5R,6R)-4-((S)-1-(tert-butylsulfonyl)butan-2-yl)-6-(3-chlorophenyl)-5-(4-chlorophenyl)-3-oxomorpholin-2-yl)acetamide or 2-((2S,5R,6R)-4-((S)-1-(tert-butylsulfonyl)butan-2-yl)-6-(3-chlorophenyl)-5-(4-chlorophenyl)-3-oxomorpholin-2-yl)acetamide] | 8.22 |
| CC[C@@H](CS(=O)(=O)c1ccccn1)N1C(=O)[C@@H](CC(=O)O)O[C@H](c2cccc(Cl)c2)[C@H]1c1ccc(Cl)cc1 (single isomer, unassigned) [Example 202, 2-((2R,5R,6R)-6-(3-chlorophenyl)-5-(4-chlorophenyl)-3-oxo-4-((S)-1-(pyridin-2-ylsulfonyl)butan-2-yl)morpholin-2-yl)acetic acid or 2-((2S,5R,6R)-6-(3-chlorophenyl)-5-(4-chlorophenyl)-3-oxo-4-((S)-1-(pyridin-2-ylsulfonyl)butan-2-yl)morpholin-2-yl)acetic acid] | 8.40 |
| CC(C)[C@@H](CS(=O)(=O)C(C)(C)C)N1C(=O)[C@@H](CC(=O)O)O[C@H](c2cccc(Cl)c2)[C@H]1c1ccc(Cl)c(F)c1 (single isomer, unassigned) [Example 311] | 8.30 |
| CC[C@@H](CS(=O)(=O)C(C)(C)C)N1C(=O)[C@@H](Cc2nnnn2C)O[C@H](c2cccc(Cl)c2)[C@H]1c1ccc(Cl)cc1 (single isomer, unassigned) [Example 400, (2R,5R,6R)-4-((S)-1-(tert-Butylsulfonyl)butan-2-yl)-6-(3-chlorophenyl)-5-(4-chlorophenyl)-2-((1-methyl-1H-tetrazol-5-yl)methyl)morpholin-3-one or (2R,5R,6R)-4-((S)-1-(tert-butylsulfonyl)butan-2-yl)-6-(3-chlorophenyl)-5-(4-chlorophenyl)-2-((2-methyl-2H-tetrazol-5-yl)methyl)morpholin-3-one] | 7.43 |
| CC[C@@H](CN(c1ccccc1F)S(=O)(=O)C1(C)CC1)N1C(=O)[C@@H](CC(=O)O)O[C@H](c2cccc(Cl)c2)[C@H]1c1ccc(Cl)cc1 (single isomer, unassigned) [Example 174, 2-((2R,5R,6R)-6-(3-chlorophenyl)-5-(4-chlorophenyl)-4-((S)-1-(N-(2-fluorophenyl)-1-methylcyclopropanesulfonamido)butan-2-yl)-3-oxomorpholin-2-yl)acetic acid or 2-((2S,5R,6R)-6-(3-chlorophenyl)-5-(4-chlorophenyl)-4-((S)-1-(N-(2-fluorophenyl)-1-methylcyclopropanesulfonamido)butan-2-yl)-3-oxomorpholin-2-yl)acetic acid] | > 9.00 |
| CC[C@]1(CC(=O)O)O[C@H](c2cccc(Cl)c2)[C@@H](c2ccc(Cl)cc2)N([C@@H](CC(F)(F)F)CS(=O)(=O)C(C)(C)C)C1=O (single isomer, unassigned) [Example 343, 2-((2R,5R,6R)-4-((S)-1-(tert-Butylsulfonyl)-4,4,4-trifluorobutan-2-yl)-6-(3-chlorophenyl)-5-(4-chlorophenyl)-2-ethyl-3-oxomorpholin-2-yl)acetic acid or 2-((2S,5R,6R)-4-((S)-1-(tert-butylsulfonyl)-4,4,4-trifluorobutan-2-yl)-6-(3-chlorophenyl)-5-(4-chlorophenyl)-2-ethyl-3-oxomorpholin-2-yl)acetic acid] | 9.00 |
| CC(C)(C)S(=O)(=O)C[C@H](C1CC1)N1C(=O)[C@@H](CC(=O)O)O[C@H](c2ccc(F)c(Cl)c2)[C@H]1c1ccc(Cl)cc1 (single isomer, unassigned) [Example 321, 2-((2R,5R,6R)-4-((S)-2-(tert-Butylsulfonyl)-1-cyclopropylethyl)-6-(3-chloro-4-fluorophenyl)-5-(4-chlorophenyl)-3-oxomorpholin-2-yl)acetic acid or 2-((2S,5R,6R)-4-((S)-2-(tert-butylsulfonyl)-1-cyclopropylethyl)-6-(3-chloro-4-fluorophenyl)-5-(4-chlorophenyl)-3-oxomorpholin-2-yl)acetic acid] | 8.70 |
